Experimental data published in PMC12374861, “Synthetic Peptides Suppress Nervous Necrosis Virus Absorption and Improve Survival Rates in European Sea Bass” (Marine Biotechnology (New York, N.y.), 2025).
Ends that are not written are not given here.

How the values were obtained:
SJNNV = assay type: cell-based, striped jack nervous necrosis virus (strain SJNag97); conditions: virus (MOI 0.01) incubated with 500 μg/mL peptide for 15 min at 25 °C, titrated in E-11 cells; control virus + PBS; representative of two independent assays; Fig. 2B
Experimental: (§1) Parental RGNNV (strain It/411/96), SJNNV (strain SJNag97), and reassortant isolates (RGNNV/SJNNV, 367.2.2005; SJNNV/RGNNV, 389/I96) were used. Viruses were propagated in E − 11 cells cultured in L-15 Leibovitz medium (BioWest) supplemented with 5% FBS, 2 mM L-glutamine, and 100 IU/mL penicillin/streptomycin (Thermo Fisher Scientific) at 25 °C. Infected monolayers were incubated at 25 °C until extensive cytopathic effect (CPE) developed. Supernatants were then harvested, centrifuged, and titrated in triplicate using the end-point dilution method, expressed as TCID₅₀/mL (Reed and Müench [1938]).
(§2) For in vitro antiviral assays, viral cultures (MOI 0.01) from parental and reassortant strains were incubated with peptides (single or combined) using a non-lethal concentration previously tested (500 μg/mL; León et al. [2020]), for 15 min at 25 °C with gentle agitation. Controls were virus samples incubated with PBS (100% viral activity). Treated samples were titrated as previously. After medium removal, cells were exposed to ten-fold viral dilutions in 2% FBS. CPE was monitored daily for 10 days, and viral titres were calculated as TCID₅₀/mL (Reed and Müench [1938]) and expressed as viral titre or percent inhibition relative to controls.
Fig. 2 Designed peptides, single or combined, reduce the NNV absorption in vitro. NNV parental or reassortant genotypes were incubated with 500 μg/mL of the synthetic peptides for 15 min. Then, the viruses were titrated in the E − 11 cell line. Control samples consisted on virus incubated with the same amount of phosphate buffer saline. (A) Viral titer (TCID50/mL) and (B) % of virus inhibition with respect to the controls are represented. Data are representative of two independent assays. […] Each bar was matched to a substance by its colour and by the order of the legend.

E-11 cells = test: MTT cytotoxicity test on E-11 cells; assay type: cell-based; conditions: 24 h at 25 °C, mean of n = 3, control = 100.0
Experimental: Synthetic peptides cytotoxicity on E − 11 cells was assessed using the MTT (Sigma) test with serial peptide dilutions (1000–4 µg/mL in L − 15 medium; n = 3; 24 h at 25 °C) as elsewhere (Cervera et al. [2024c]). Absorbance was measured at 570 nm (BMG Labtech); blanks lacked cells. Cell viability was calculated as the OD ratio of treated to untreated cells × 100, normalized at 690 nm.
Supplementary data S4: Cell viability (%) of E-11 cells after incubation with the synthetic peptides for 24 h. Data represent the mean ± SEM (n=3).

RGNNV [1] = test: RGNNV in vivo bath challenge of European sea bass with peptide injection after infection; parameters: species or system European sea bass (Dicentrarchus labrax); conditions: for Clinical signs of VER disease, severity score: four-rank scale 1-4, sea bass, RGNNV bath challenge, 1 µg peptide/g i.m., Fig. 4B; for Relative percent survival (RPS): juvenile sea bass, bath infection 3.16 × 10^4 TCID₅₀ RGNNV/mL for 2 h, then intramuscular injection 1 µg peptide/g, 23 dpi, infected PBS group 63.6% survival; for RGNNV rdrp gene expression in the brain / RGNNV cp gene expression in the brain: qPCR relative to ef1a, 2 dpi, n = 6, 1 µg peptide/g i.m. after RGNNV bath challenge; for RGNNV rdrp gene expression in the brain: Fig. 5B; for RGNNV cp gene expression in the brain: Fig. 5A
Experimental: RGNNV In vivo Challenge of European Sea Bass
A total of 375 sea bass were randomly assigned to eight experimental groups (in duplicate) and acclimated for 15 days. Seven groups were infected by immersion (10 L; 3.16 × 10^4 TCID₅₀ RGNNV/mL; 2 h), while a mock-infected control received conditioned medium. […] Combinations were selected according to the results obtained in the competitive in vitro assay against RGNNV (see below). Disease signs and mortalities were monitored daily for 23 days post-infection (dpi) using a four-rank scale (Valero et al. [2021a]). Fish (n = 6/group/time-point) were sampled at 2 and 23 dpi, euthanized with clove oil, bled, and weighed. Brain, NNV target tissue, and head-kidney, major hematopoietic tissue in fish, were dissected, frozen in TRIzol (Life Technologies), and stored at − 80 °C.
For viral load analysis, total RNA was extracted from sea bass brain and head-kidney using TRIzol (Life Technologies) and from E − 11 cells using the GenJET RNA Purification Kit (Thermo Fisher Scientific), following manufacturer protocols. One microgram of RNA was DNAse I-treated (1 U/µL; Thermo Scientific), and cDNA was synthesized using Superscript IV Reverse Transcriptase (Invitrogen). qPCR was performed on a QuantStudio 5 Flex (Applied Biosystems) to quantify cp, rdrp and mx genes using PowerUp SYBR Green reagents (Applied Biosystems). The protocol included a 95 °C hold, then 40 cycles (95 °C; 15 s) and 60 °C for 1 min. Relative expression was calculated using the 2^⁻ΔCt method (Livak and Schmittgen [2001]), with ef1a as the endogenous control. Primers (Supplementary Data S2) were validated by melting curve analysis and negative controls.
Fish mortality was analysed using Kaplan–Meier survival curves with log-rank (Mantel–Cox) tests for significance. Relative gene expression was evaluated by one-way ANOVA (p ≤ 0.05) followed by Tukey’s test. Viral kinetics were compared between P4-treated and untreated groups using Student’s t-test (p ≤ 0.05) at specific time points. All analyses were performed with IBM SPSS Statistics 20.
Fig. 4 Therapeutic administration of synthetic peptides improves survival and symptomatology in […] (RGNNV)-infected European sea bass juveniles. […] A mock-infected group was treated twice with only PBS. (A) Kaplan–Meier survival curves; (B) Heat-map representing the cumulated number of fish showing clinical signs of VER disease attending to their severity: (1) changes of the color of the skin, slower rhythm of swimming and/or slower reaction to external stimuli as feeding; (2) alterations in the swimming balance and/or erratic swimming spasms; (3) continuous erratic swimming; and (4) complete incapacity to keep balance, swim and/or move without external stimuli. VER, viral encephalopathy and retinopathy
Fig. 5 Therapeutic administration of synthetic peptides decreased viral loads in the brain without additional mx gene regulation in the sea bass juveniles head-kidney infected with red-spotted grouper nervous necrosis virus (RGNNV). […] A mock-infected group was treated twice with only PBS. (A–C) Transcription levels of RGNNV cp (A) and rdrp (B) genes in the brain and (C) mx gene in the head-kidney. Data represent the relative gene expression mean ± SEM (n = 6). Different letters indicate significant differences among groups according to the ANOVA (p < 0.05)

RGNNV [2] = test: RGNNV adsorption efficiency, progeny production and replication kinetics in P4 pre-treated E-11 cells; assay type: cell-based, red-spotted grouper nervous necrosis virus
Experimental: Based on in vivo results (see below), the P4 effect on RGNNV replication was further assessed by analysing viral adsorption efficiency and progeny production, as previously (Valero et al. [2021b]) with slight modifications. Intracellular and extracellular viral kinetics were examined using semi-confluent E − 11 monolayers in 12-well plates (Sarstedt) treated with P4 (500 µg/mL) for 24 h; untreated cells served as controls. After treatment, supernatants were removed, cells washed thrice, and infected with RGNNV (MOI 0.01) for 45 min. Residual inoculum was collected, and monolayers washed and overlaid with L-15 for incubation at 25 °C with daily CPE monitoring. Supernatants were collected at 8, 12, 24, and 48 h post-infection (hpi); cells were washed, scraped and stored. For extracellular kinetics, supernatants were collected until 168 hpi. All samples were clarified by centrifugation (2000 × g, 10 min). Titrations were performed for: (i) total inoculated virus (TIV), (ii) non-attached virus (NAV), and (iii) viral progeny (VP). Assays were conducted in triplicate.
Formulas used for impact of synthetic peptides on RGNNV replication in vitro assay are the following: • AbsorbedvirusAV=TIV-NAV • AdsorptionefficacyAE=AV/TIV×100 • Productionrate(PR)=VP/AV • Relativeratioofproduction(RRP)=PRP4+RGNNV/PRRGNNV
Fig. 3 The pre-treatment with P4 synthetic peptide partially disrupts the replication of RGNNV in vitro. (A) Intracellular replication kinetics; (B) Viral production in cell supernatants; and (C, D) Genome synthesis in cell lysates by means of transcriptional levels of rdrp (C) and cp (D) genes. Monolayers of E-11 were incubated with 500 µg/mL of P4 or untreated for 24 h and then infected with […] nervous necrosis virus (RGNNV) (n = 3). Supernatants and cell lysates were collected at 8, 12, 24, 48 h post-infection (hpi). Additionally, supernatants were sampled at 168 hpi for extracellular replication kinetic analysis. Infectious titers were determined by the end-point titration method (Reed and Müench [1938]) and expressed as mean Log10 TCID50/mL ± standard error of the mean (SEM). Relative expression was presented as the mean ± SEM (n = 3). Asterisks indicate significant differences among groups according to the Student-t test (p < 0.05)

RGNNV/SJNNV reassortant = test: In vitro antiviral (competition) assay: virus incubated with peptide, then titrated in E-11 cells; assay type: cell-based, RGNNV/SJNNV reassortant (367.2.2005); conditions: virus (MOI 0.01) incubated with 500 μg/mL peptide for 15 min at 25 °C, control virus + PBS, representative of two independent assays, Fig. 2B
Experimental: as §1, §2
Fig. 2 Designed peptides, single or combined, reduce the NNV absorption in vitro. […]

| Substance | % of virus inhibition with respect to the controls, SJNNV (SJNNV) [%] | Viability (%) of E-11 cells, mean (E-11 cells; peptide 0.00411 mg/mL) [%] | Viability (%) of E-11 cells, mean (E-11 cells; peptide 0.01234 mg/mL) [%] | Viability (%) of E-11 cells, mean (E-11 cells; peptide 0.03704 mg/mL) [%] | Viability (%) of E-11 cells, mean (E-11 cells; peptide 0.11111 mg/mL) [%] | Viability (%) of E-11 cells, mean (E-11 cells; peptide 0.33333 mg/mL) [%] | Viability (%) of E-11 cells, mean (E-11 cells; peptide 1.00000 mg/mL) [%] | Clinical signs of VER disease, severity score (RGNNV [1]) | Relative percent survival (RPS) (RGNNV [1]) [%] | RGNNV rdrp gene expression in the brain (RGNNV [1]) | RGNNV cp gene expression in the brain (RGNNV [1]) | AE, adsorption efficiency (RGNNV [2]; AE = AV/TIV × 100, E-11 cells pre-treated with P4 500 µg/mL 24 h, untreated cells 99.05%) [%] | Intracellular viral replication titre at 48 h post-infection (RGNNV [2]; E-11 cells pre-treated with P4 500 µg/mL 24 h, RGNNV, cell lysates, 48 hpi, untreated cells 2.40 × 10⁶, n = 3, Fig. 3A) | Viral release in cell supernatants at 48 h post-infection (RGNNV [2]; E-11 cells pre-treated with P4 500 µg/mL 24 h, RGNNV, supernatants, 48 hpi, untreated cells 6.77 × 10^4, n = 3, Fig. 3B) | Viral progeny (VP) (RGNNV [2]; E-11 cells pre-treated with P4 500 µg/mL 24 h, then RGNNV MOI 0.01, untreated cells 1.40 × 10^8) | Attached virus (AV), Log ± SEM (RGNNV [2]; E-11 cells pre-treated with P4 500 µg/mL for 24 h, then RGNNV MOI 0.01 for 45 min, triplicate) | Attached virus (AV) (RGNNV [2]; E-11 cells pre-treated with P4 500 µg/mL for 24 h, washed, infected with RGNNV MOI 0.01 for 45 min, AV = TIV − NAV, triplicate, untreated cells 9.20 × 10^5 in Table 2) | PR, production rate (RGNNV [2]; PR = VP/AV, P4 pre-treated E-11 cells, untreated cells 151.57) | RRP, relative ratio of production (RGNNV [2]; RRP = PR(P4+RGNNV)/PR(RGNNV)) | % of virus inhibition with respect to the controls, RGNNV/SJNNV (RGNNV/SJNNV reassortant) [%] |
| --- | --- | --- | --- | --- | --- | --- | --- | --- | --- | --- | --- | --- | --- | --- | --- | --- | --- | --- | --- | --- |
| SVRLSVPSLETPEETTA-NH2 [Peptide P7] | 90 | 149.6 | 125.7 | 138.9 | 116.6 | 119.8 | 131.6 | ≤ 4 | 68.8 | effectively blocked |  |  |  |  |  |  |  |  |  |  |
| TTKAANPQPRRRANNRRRS-NH2 [Peptide P1] | 90 | 123.5 | 129.9 | 100.1 | 96.6 | 109.3 | 91.5 |  |  |  |  |  |  |  |  |  |  |  |  |  |
| PDPTDNDHTFD-NH2 [Peptide P4] |  | 87.4 | 102.6 | 92.4 | 110.6 | 100.5 | 106.4 | 1 | 81.3 | lowered | lowered | 98.99 | 1.64 × 10^4 TCID₅₀/mL | 3.36 × 10^3 TCID₅₀/mL | 2.46 × 10^7 TCID50/mL | 5.96 ± 0.005 | 9.21 × 10^5 TCID50/mL | 26.76 | 0.18 |  |
| VSKASTVTGFGR-NH2 [Peptide P2] | 90 | 103.1 | 121.8 | 111.5 | 106.2 | 126.9 | 117.2 |  | 43.8 | no transcriptional effect | no transcriptional effect |  |  |  |  |  |  |  |  | 96.84 |
| LLWTSSGKEQR-NH2 [Peptide P6] | 90 | 157.5 | 139.2 | 138.9 | 152.9 | 146.5 | 128.1 |  |  |  |  |  |  |  |  |  |  |  |  |  |
